The results in this text go back to patent publication US20260224482A1, “USE OF OXIDATIVE PRECURSORS IN POULTRY FARMING” (AGA NANOTECH LTD, priority 2023, published 2026).

“Also recorded” adds a separate entry of the source.

Data set [1] deals with Ross 308 male day-old chickens. Put plainly: In-water PAA in chickens: performance and safety. It is filed as in vivo. How it is done: (§1) A total of 96 Ross 308 male day-old chickens were used during the trial duration (randomized block design with 2 rooms, 12 pens per room, 4 birds per pen and 4 pens per level of inclusion), whilst PAA treatment was administered during the last week. Six different PAA levels of inclusion were tested through in-water daily administration of SP and TAED precursors. Possible PAA effect on body weight gain (BWG), FCR (feed conversion ratio), feed/water intake and BN (bacterial number) were assessed through fitting linear mixed model (i.e. treatment as fixed effect and hierarchy of room/pen/bird when possible as random effect). Longitudinal data were used when repeated measures were taken. Total bacterial number in DNA extracted from crop, jejunum and caecal content was calculated through qPCR targeting 16S rRNA gene (V3 region). Study design and protocol were approved by SRUC Animal Welfare and Review Body (POU AE 20-2019).

The subject of data set [2] is total bacterial number in crop content. Put plainly: Total bacterial number by qPCR targeting 16S rRNA gene. It counts as in vivo, chickens. As to conditions: in-water for one week via SP and TAED precursors; P=0.02. As to the method: as §1

`CC(=O)OO` [PAA, peracetic acid]: the “effect on BWG from D7 to D14” value in data set [1] (PAA administered at 40 ppm, P=0.05) is listed as “most evident effect”. For the same molecule, the adverse effects entry in data set [1] (PAA in-water administration) is given as “no adverse effects”. Besides, in data set [1] (in-water PAA up to 50 ppm), the bird mortality is recorded as 0 ^0/0. Besides, the BWG during treatment result in data set [1] (in-water for one week via SP and TAED precursors, P=0.05) is “increased”. Besides, the “BN in the crop” value in data set [2] was “reducing; also recorded: appears to be reduced by higher dosage”.
